# Laboratory results taken from patent US8895572B2, “Fused heterocyclic indane carboxamide CGRP receptor antagonists” (Merck Sharp & Dohme Corp., priority 2010, dated 2014).
# Target: T1, recombinant human CL receptor/RAMP1 (Homo sapiens, UniProt O60894+Q16602)
# T1 construct: expressed in transfected cells; membranes used
# Assay: Recombinant receptor binding assay (125I-hCGRP)
# Settings: membranes of HEK 293 cells expressing human CL receptor/RAMP1, 10 pM 125I-hCGRP, 3 h at room temperature
# Procedure: Human CL receptor (Genbank accession number L76380) was subcloned into the expression vector pIREShyg2 (BD Biosciences Clontech) as a 5′NheI and 3′ PmeI fragment. Human RAMP1 (Genbank accession number AJ001014) was subcloned into the expression vector pIRESpuro2 (BD Biosciences Clontech) as a 5′NheI and 3′NotI fragment. HEK 293 cells (human embryonic kidney cells; ATCC #CRL-1573) were cultured in DMEM with 4.5 g/L glucose, 1 mM sodium pyruvate and 2 mM glutamine supplemented with 10% fetal bovine serum (FBS), 100 units/mL penicillin and 100 μg/mL streptomycin, and maintained at 37° C. and 95% humidity. Cells were subcultured by treatment with 0.25% trypsin with 0.1% EDTA in HBSS. Stable cell line generation was accomplished by co-transfecting 10 μg of DNA with 30 μg Lipofectamine 2000 (Invitrogen) in 75 cm^2 flasks. CL receptor and RAMP1 expression constructs were co-transfected in equal amounts. Twenty-four hours after transfection the cells were diluted and selective medium (growth medium+300 μg/mL hygromycin and 1 μg/mL puromycin) was added the following day. A clonal cell line was generated by single cell deposition utilizing a FACS Vantage SE (Becton Dickinson). Growth medium was adjusted to 150 μg/mL hygromycin and 0.5 μg/mL puromycin for cell propagation.
# Cells expressing recombinant human CL receptor/RAMP1 were washed with PBS and harvested in harvest buffer containing 50 mM HEPES, 1 mM EDTA and Complete™ protease inhibitors (Roche). The cell suspension was disrupted with a laboratory homogenizer and centrifuged at 48,000 g to isolate membranes. The pellets were resuspended in harvest buffer plus 250 mM sucrose and stored at […]. For binding assays, 20 μg of membranes were incubated in 1 mL binding buffer (10 mM HEPES, pH 7.4, 5 mM MgCl2, and 0.2% BSA) for 3 h at room temperature containing 10 pM ^125I-hCGRP (GE Healthcare) and antagonist. The assay was terminated by filtration through 96-well GFB glass fiber filter plates (PerkinElmer) that had been blocked with 0.05% polyethyleneimine. The filters were washed 3 times with ice-cold assay buffer (10 mM HEPES, pH 7.4, and 5 mM MgCl2). Scintillation fluid was added and the plates were counted on a Topcount (Packard). Non-specific binding was determined and the data analysis was carried out with the apparent dissociation constant (Ki) determined by using a non-linear least squares fitting the bound CPM data to the equation below:
# [formula] Where Y is observed CPM bound, Ymax is total bound counts, Ymin is non specific bound counts, (Ymax−Ymin) is specific bound counts, % Imax is the maximum percent inhibition, % 1 min is the minimum percent inhibition, radiolabel is the probe, and the Kd is the apparent dissociation constant for the radioligand for the receptor as determined by hot saturation experiments.
# T1 sequence (Q16602 23-461): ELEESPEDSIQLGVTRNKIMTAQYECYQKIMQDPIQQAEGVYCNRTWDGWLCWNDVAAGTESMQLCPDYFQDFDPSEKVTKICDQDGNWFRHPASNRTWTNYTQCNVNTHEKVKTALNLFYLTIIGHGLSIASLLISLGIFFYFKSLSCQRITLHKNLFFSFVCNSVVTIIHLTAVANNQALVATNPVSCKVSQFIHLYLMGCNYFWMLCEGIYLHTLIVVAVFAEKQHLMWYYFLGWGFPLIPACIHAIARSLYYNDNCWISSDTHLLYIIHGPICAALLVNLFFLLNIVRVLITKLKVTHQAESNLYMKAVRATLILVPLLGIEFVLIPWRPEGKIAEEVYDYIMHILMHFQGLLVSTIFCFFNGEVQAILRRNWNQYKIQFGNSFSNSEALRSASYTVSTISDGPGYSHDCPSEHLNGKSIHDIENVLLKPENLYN
# T1 sequence (O60894 27-148): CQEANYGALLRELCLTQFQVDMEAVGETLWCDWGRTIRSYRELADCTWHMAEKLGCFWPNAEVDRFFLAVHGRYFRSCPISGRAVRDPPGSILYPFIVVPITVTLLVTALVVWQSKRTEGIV
row,Ki [nM],SMILES
1,0.07,"O=C(N[C@H]1C[C@@H](c2cccc(F)c2F)Cn2c(CC(F)(F)F)cnc21)c1ccc2c(c1)C[C@@]1(C2)C(=O)Nc2ncccc21 [Example 1.2, (2R)—N-[(6S,8S)-6-(2,3-Difluorophenyl)-3-(2,2,2-trifluoroethyl)-5,6,7,8-tetrahydroimidazo[1,2-a]pyridin-8-yl]-2′-oxo-1,1′,2′,3-tetrahydrospiro[indene-2,3′-pyrrolo[2,3-b]pyridine]-5-carboxamide]"
2,0.03,"COC(C)(C)c1cnc2n1C[C@H](c1cccc(F)c1F)C[C@@H]2NC(=O)c1ccc2c(c1)C[C@@]1(C2)C(=O)Nc2ncccc21 [Example 1.8, (2R)—N-[(6S,8S)-6-(2,3-Difluorophenyl)-3-(2-methoxypropan-2-yl)-5,6,7,8-tetrahydroimidazo[1,2-a]pyridin-8-yl]-2′-oxo-1,1′,2′,3-tetrahydrospiro[indene-2,3′-pyrrolo[2,3-b]pyridine]-5-carboxamide]"
3,0.07,"O=C(N[C@H]1C[C@@H](c2cccc(F)c2F)Cn2c(CC(F)(F)F)nnc21)c1ccc2c(c1)C[C@@]1(C2)C(=O)Nc2ncccc21 [Example 1.14, (2R)—N-[(6S,8S)-6-(2,3-Difluorophenyl)-3-(2,2,2-trifluoroethyl)-5,6,7,8-tetrahydr[1,2,4]triazolo[4,3-a]pyridin-8-yl]-2′-oxo-1,1′,2′,3-tetrahydrospiro[indene-2,3′-pyrrolo[2,3-b]pyridine]-5-carboxamide]"
4,0.39,"C[C@@H]1[C@H](c2ccccc2)C[C@H](NC(=O)c2ccc3c(c2)C[C@@]2(C3)C(=O)Nc3ncccc32)c2nnc(C3(C(F)(F)F)CC3)n21 [Example 1.19, (2R)—N-{(5R,6S,8S)-5-Methyl-6-phenyl-3-[1-(trifluoromethyl)cyclopropyl]-5,6,7,8-tetrahydro[1,2,4]triazolo[4,3-a]pyridin-8-yl}-2′-oxo-1,1′,2′,3-tetrahydrospiro[indene-2,3′-pyrrolo[2,3-b]pyridine]-5-carboxamide]"
5,0.27,"C[C@@H]1[C@H](c2ccccc2)C[C@H](NC(=O)c2ccc3c(c2)C[C@@]2(C3)C(=O)Nc3ncccc32)c2ncc(C(C)(C)O)n21 [Example 1.20, (2R)—N-[(5R,6S,8S)-3-(2-Hydroxypropan-2-yl)-5-methyl-6-phenyl-5,6,7,8-tetrahydroimidazo[1,2-a]pyridin-8-yl]-2′-oxo-1,1′,2′,3-tetrahydrospiro[indene-2,3′-pyrrolo[2,3-b]pyridine]-5-carboxamide]"
6,0.19,"C[C@@H]1[C@H](c2ccccc2)C[C@H](NC(=O)c2ccc3c(c2)C[C@@]2(C3)C(=O)Nc3ncncc32)c2ncc(C(C)(C)O)n21 [Example 2.1, (2R)—N-[(5R,6S,8S)-3-(2-Hydroxypropan-2-yl)-5-methyl-6-phenyl-5,6,7,8-tetrahydroimidazo[1,2-a]pyridin-8-yl]-6′-oxo-1,3′,6′,7′-tetrahydrospiro[indene-2,5′-pyrrolo[2,3-d]pyrimidine]-5-carboxamide]"
